Patent publication US20170204102A1, “AGRICULTURAL AGENT CONTAINING 2,5-DIKETOPIPERAZINE DERIVATIVE AS ACTIVE INGREDIENT” (NAPRO BIOTEC INC., priority 2010, published 2017)

Experiments:
cucumber leaf = assay: Promotion of growth of cucumber leaf; details: Cucumis sativus, read-out: Width of leaf
Experimental: Plant leaves were tested with test compounds by drenching. […] 3-5 days later, the width of the leaves was measured again to compare the growth of the leaves relative to the control group.

[1] = tested on: Pectobacterium carotovorum SCC1; assay: Inhibition of soft rot lesion in cucumber leaf; assay type: in vivo; details: Table 8, control 100
[2] = tested on: Pectobacterium carotovorum SCC1; assay: Inhibition of soft rot lesion in tobacco leaf; assay type: in vivo; details: Table 5, control 73.75

SMILES | response vs control in vivo at 1 ppm (cucumber leaf) | response vs control in vivo at 10 ppm (cucumber leaf) | response vs control in vivo at 100 ppm (cucumber leaf) | Area of lesion ([1]; 1 ppm) | Area of lesion ([1]; 10 ppm) | Area of lesion ([1]; 100 ppm) | Area of lesion ([2]; 1 ppm) | Area of lesion ([2]; 10 ppm) | Area of lesion ([2]; 100 ppm)
O=C1NC(CO)C(=O)N2CCCC12 (stereo not drawn) [Compound No. 32, 3-hydroxymethylhexahydropyrrolo[1,2-a]pyrazin-1,4-dione] | 98.7% | 124% | 112% |  |  |  |  |  | 
CC(O)C1NC(=O)C2CCCN2C1=O (stereo not drawn) [Compound No. 33, 3-(1-hydroxyethyl)hexahydropyrrolo[1,2-a]pyrazin-1,4-dione] | 109% | 117% | 110% |  |  |  |  |  | 
CC(O)C1NC(=O)C2CCCN2C1=O (stereo not drawn) [Compound No. 56] |  |  |  | 5% | 80% | 70% | 7.5% | 10% | 10%
CSCC[C@H]1NC(=O)[C@@H]2CCCN2C1=O [Compound No. 57] |  |  |  | 70% | 72.5% | 60% | 10% | 10% | 12.5%
O=C1N[C@H](Cc2ccccc2)C(=O)N2CCC[C@@H]12 [Compound No. 58] |  |  |  | 75% | 57.5% | 80% | 35% | 25% | 7.5%
NC(=O)CC[C@H]1NC(=O)[C@@H]2CCCN2C1=O [Compound No. 59] |  |  |  | 30% | 32.5% | 80% | 12.5% | 32.5% | 47.5%
CCC(C)C1NC(=O)C2CCCN2C1=O (stereo not drawn) [Compound No. 60] |  |  |  | 50% | 60% | 27.5% | 33.7% | 25% | 7.5%
CC(C)C[C@H]1NC(=O)[C@H]2CCCN2C1=O [Compound No. 61] |  |  |  | 5% | 70% | 75% | 10% | 10% | 17.5%
O=C1N[C@H](Cc2ccccc2)C(=O)N2CCC[C@H]12 [Compound No. 63] |  |  |  | 82.5% | 42.5% | 50% | 15% | 22.5% | 65%
O=C1N[C@H](Cc2ccc(O)cc2)C(=O)N2CCC[C@H]12 [Compound No. 64] |  |  |  | 50% | 55% | 65% | 55% | 37.5% | 60%
CSCC[C@H]1NC(=O)[C@H]2CCCN2C1=O [Compound No. 65] |  |  |  |  |  |  | 60% | 57.5% | 52.5%
CC(O)C1NC(=O)C2CCCN2C1=O (stereo not drawn) [Compound No. 66] |  |  |  |  |  |  | 35% | 37.5% | 37.5%
CCC(C)C1NC(=O)C2CCCN2C1=O (stereo not drawn) [Compound No. 67] |  |  |  |  |  |  | 25% | 35% | 40%
NC(=O)CC1NC(=O)C2CCCN2C1=O (stereo not drawn) [Compound No. 68, 3-carbamoylmethylhexahydropyrrolo[1,2-a]pyrazin-1,4-dione] |  |  |  |  |  |  | 10% | 7.5% | 30%
